Assay results: the supplement of paper PMC11208160

Experiment: recombinant UMI read abundance after kanamycin selection (control-corrected) (log10(CPM+1)); higher = more efficient recombination; extreme values may be limits of the assay; sequences stand for … in AGTGCAGAGAAAATCGGCCAGTTTTCTCTGCCTGCAGTCCGCATGCCGTGGGACCCCTTGGGTTCTAACCTGTTGCCTAGATTTATGCAGCGGACTGCCTTTCTCCCAAAGTGATAAACCGG…AGGTTGGTTTCACT; site = the 11-nt donor
Method in brief: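 Counts of recombinant UMIs were reported as log10(CPM+1). Before that, they were converted to CPM, averaged over replicates and scaled using control-derived factors. They came from PCR across the donor–target junction after Escherichia coli carrying the pair library and target plasmid was plated on IPTG (0.07 mM) plus kanamycin, or unselected, in two replicates each.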
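Also: IS621 bridge recombinase in Escherichia coli cells against a fixed T5 target plasmid.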

Sequence | recombinant UMI read abundance (log10)
GAATGGCCATGGACCGGTTTTCCCGGTAATCCGTATTTGCA (site TAATGGCCTTG) | 0.00558
GAATGGGCATGGACCGGTTTTCCCGGTAATCCGTATTTGCA (site GAATGGACTTG) | 1.98
GAATGGGCATGGACCGGTTTTCCCGGTAATCCGTATTTGCA (site GAATGGCCTTG) | 0.00596
GAATGGGCATGGACCGGTTTTCCCGGTAATCCGTATTTGCA (site GAATGGGCTTG) | 2.42
GAATGGGCATGGACCGGTTTTCCCGGTAATCCGTATTTGCA (site GAATGGTCTTG) | 2.23
GACAAAACATGGACCGGTTTTCCCGGTAATCCGTATTTGGT (site GACAAAACTAC) | 0.855
GACAAAACATGGACCGGTTTTCCCGGTAATCCGTATTTGGT (site GACAAACCTAC) | 0
GACAAAACATGGACCGGTTTTCCCGGTAATCCGTATTTGGT (site GACAAAGCTAC) | 0.517
GACAAAACATGGACCGGTTTTCCCGGTAATCCGTATTTGGT (site GACAAATCTAC) | 0
GACAAACCATGGACCGGTTTTCCCGGTAATCCGTATTTGAT (site GACAAACCTAA) | 0
GACAAACCATGGACCGGTTTTCCCGGTAATCCGTATTTGAT (site GACAAACCTAC) | 0
GACAAACCATGGACCGGTTTTCCCGGTAATCCGTATTTGAT (site GACAAACCTAG) | 0
GACAAACCATGGACCGGTTTTCCCGGTAATCCGTATTTGAT (site GACAAACCTAT) | 0
GACAAACCATGGACCGGTTTTCCCGGTAATCCGTATTTGGT (site AACAAACCTAC) | 0
GACAAACCATGGACCGGTTTTCCCGGTAATCCGTATTTGGT (site CACAAACCTAC) | 0
GACAAACCATGGACCGGTTTTCCCGGTAATCCGTATTTGGT (site GAAAAACCTAC) | 0
GACAAACCATGGACCGGTTTTCCCGGTAATCCGTATTTGGT (site GACAAAACTAC) | 0
GACAAACCATGGACCGGTTTTCCCGGTAATCCGTATTTGGT (site GACAAACCTAA) | 0
GACAAACCATGGACCGGTTTTCCCGGTAATCCGTATTTGGT (site GACAAACCTAC) | 0
GACAAACCATGGACCGGTTTTCCCGGTAATCCGTATTTGGT (site GACAAACCTAG) | 0
GACAAACCATGGACCGGTTTTCCCGGTAATCCGTATTTGGT (site GACAAACCTAT) | 0
GACAAACCATGGACCGGTTTTCCCGGTAATCCGTATTTGGT (site GACAAACCTCC) | 0.0384
GACAAACCATGGACCGGTTTTCCCGGTAATCCGTATTTGGT (site GACAAACCTGC) | 0

Sequence | recombinant UMI read abundance (log10)
GACAAACCATGGACCGGTTTTCCCGGTAATCCGTATTTGGT (site GACAAACCTTC) | 0
GACAAACCATGGACCGGTTTTCCCGGTAATCCGTATTTGGT (site GACAAAGCTAC) | 0
GACAAACCATGGACCGGTTTTCCCGGTAATCCGTATTTGGT (site GACAAATCTAC) | 0
GACAAACCATGGACCGGTTTTCCCGGTAATCCGTATTTGGT (site GACAACCCTAC) | 0
GACAAACCATGGACCGGTTTTCCCGGTAATCCGTATTTGGT (site GACAAGCCTAC) | 0.00399
GACAAACCATGGACCGGTTTTCCCGGTAATCCGTATTTGGT (site GACAATCCTAC) | 0
GACAAACCATGGACCGGTTTTCCCGGTAATCCGTATTTGGT (site GACACACCTAC) | 0
GACAAACCATGGACCGGTTTTCCCGGTAATCCGTATTTGGT (site GACAGACCTAC) | 0
GACAAACCATGGACCGGTTTTCCCGGTAATCCGTATTTGGT (site GACATACCTAC) | 0
GACAAACCATGGACCGGTTTTCCCGGTAATCCGTATTTGGT (site GACCAACCTAC) | 0.00428
GACAAACCATGGACCGGTTTTCCCGGTAATCCGTATTTGGT (site GACGAACCTAC) | 0
GACAAACCATGGACCGGTTTTCCCGGTAATCCGTATTTGGT (site GACTAACCTAC) | 0
GACAAACCATGGACCGGTTTTCCCGGTAATCCGTATTTGGT (site GAGAAACCTAC) | 0
GACAAACCATGGACCGGTTTTCCCGGTAATCCGTATTTGGT (site GATAAACCTAC) | 0
GACAAACCATGGACCGGTTTTCCCGGTAATCCGTATTTGGT (site GCCAAACCTAC) | 0
GACAAACCATGGACCGGTTTTCCCGGTAATCCGTATTTGGT (site GGCAAACCTAC) | 0
GACAAACCATGGACCGGTTTTCCCGGTAATCCGTATTTGGT (site GTCAAACCTAC) | 0
GACAAACCATGGACCGGTTTTCCCGGTAATCCGTATTTGGT (site TACAAACCTAC) | 0
GACAACCCATGGACCGGTTTTCCCGGTAATCCGTATTTGCT (site GACAACCCTAG) | 0.00684
GACAACCCATGGACCGGTTTTCCCGGTAATCCGTATTTGGT (site GACAAACCTAC) | 0
GACAACCCATGGACCGGTTTTCCCGGTAATCCGTATTTGGT (site GACAACCCTAC) | 0
GACAACCCATGGACCGGTTTTCCCGGTAATCCGTATTTGGT (site GACAAGCCTAC) | 0.00882
GACAACCCATGGACCGGTTTTCCCGGTAATCCGTATTTGGT (site GACAATCCTAC) | 0

Sequence | recombinant UMI read abundance (log10)
GACAAGCCATGGACCGGTTTTCCCGGTAATCCGTATTTGGT (site GACAAACCTAC) | 0
GACAAGCCATGGACCGGTTTTCCCGGTAATCCGTATTTGGT (site GACAACCCTAC) | 0.00727
GACAAGCCATGGACCGGTTTTCCCGGTAATCCGTATTTGGT (site GACAAGCCTAC) | 0
GACAAGCCATGGACCGGTTTTCCCGGTAATCCGTATTTGGT (site GACAATCCTAC) | 0
GACAATTCATGGACCGGTTTTCCCGGTAATCCGTATTTGAC (site GACAATTCTGT) | 0
GACACATCATGGACCGGTTTTCCCGGTAATCCGTATTTGGT (site GACACATCTAC) | 2.25
GACATACCATGGACCGGTTTTCCCGGTAATCCGTATTTGGT (site GACAAACCTAC) | 0
GACATACCATGGACCGGTTTTCCCGGTAATCCGTATTTGGT (site GACACACCTAC) | 0.01
GACATACCATGGACCGGTTTTCCCGGTAATCCGTATTTGGT (site GACAGACCTAC) | 0
GACATACCATGGACCGGTTTTCCCGGTAATCCGTATTTGGT (site GACATACCTAC) | 0.0102
GACCCGCCATGGACCGGTTTTCCCGGTAATCCGTATTTGAG (site GACCCGCCTCT) | 0.0157
GACCCGCCATGGACCGGTTTTCCCGGTAATCCGTATTTGTG (site GACCCGCCTCA) | 0.0171
GACCCGTCATGGACCGGTTTTCCCGGTAATCCGTATTTGTG (site GACCCGTCTCA) | 1.63
GACCGAGCATGGACCGGTTTTCCCGGTAATCCGTATTTGTA (site GACCGAGCTTA) | 1.19
GACCTAGCATGGACCGGTTTTCCCGGTAATCCGTATTTGAA (site GACCTAGCTTT) | 0.349
GACCTCACATGGACCGGTTTTCCCGGTAATCCGTATTTGAT (site GAACTCACTAT) | 0.0127
GACCTCACATGGACCGGTTTTCCCGGTAATCCGTATTTGAT (site GACCTCACTAT) | 0.626
GACCTCACATGGACCGGTTTTCCCGGTAATCCGTATTTGAT (site GAGCTCACTAT) | 0
GACCTCACATGGACCGGTTTTCCCGGTAATCCGTATTTGAT (site GATCTCACTAT) | 0.00913
GACCTCCCATGGACCGGTTTTCCCGGTAATCCGTATTTGTG (site GACCTCCCTCA) | 0.00533
GACGACGCATGGACCGGTTTTCCCGGTAATCCGTATTTGGA (site GACGACGCTTC) | 2.48
GACGTAACATGGACCGGTTTTCCCGGTAATCCGTATTTGTA (site GACGTAACTTA) | 2.19
